{"source": "paper PMC10826971", "about": "“Evaluating protein cross-linking as a therapeutic strategy to stabilize SOD1 variants in a mouse model of familial ALS” (PLOS Biology, 2024)", "key": {"[1]": {"system": "fALS SOD1 variants", "assay": "Size exclusion chromatography (SEC) under native conditions", "set-up": "species or system human", "experimental": "We have analyzed samples with and without cross-linker via SEC with high performance liquid chromatography (SEC-HPLC) to assess the SOD1 protein composition in its native state. […] For inducing aggregation, all samples (final conc. 1 μm) were incubated at 37°C for 1 h prior the SEC analysis. […] An isocratic mobile phase consisting of 100 mM sodium phosphate, 200 mM sodium chloride (pH 7.4) was used for 6 min to analyze each sample at wavelength of 280 nm. Waters BEH 200 standard was injected at the beginning, middle, and at the end to confirm the retention time was not shifting throughout the entire experiment."}, "[2]": {"target": "SOD1^G93A (Homo sapiens, UniProt P00441, G94A)", "sequence (P00441 2-154 G94A limits assumed)": "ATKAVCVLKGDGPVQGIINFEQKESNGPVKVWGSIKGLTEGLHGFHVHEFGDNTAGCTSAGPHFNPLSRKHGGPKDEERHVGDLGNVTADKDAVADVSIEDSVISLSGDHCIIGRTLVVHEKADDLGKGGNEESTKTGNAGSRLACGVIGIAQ", "assay": "Small-angle x-ray solution scattering (SAXS)", "set-up": "made in house; host or cells: EGy118ΔSOD1 yeast, YEp351 expression vector", "details": "GNOM; untreated over 200 Å", "experimental": "SAXS data were collected at the G1 beamline at Cornell High Energy Synchrotron Source (CHESS). For each sample, 2 measurements were taken, one of the protein with buffer and one with buffer by itself. Solution scattering data were captured every second for 10 frames. The 10 frames of both buffer and protein were then averaged and the buffer was subtracted out to get the scattering for the protein. Samples were run in a 96-well plate and held at 4°C continuously. Data collection was in the scattering angle (q) range of 0.008 to 0.71 Å^-1 and processed using the software, RAW.\nControl sample contained 5% MeOH (final conc. 2.5%). Samples were then incubated at 37°C for 6 h to ensure complete cross-linking. After incubation, excess compound was buffer exchanged out of each sample using a 10 kDa MWCO ultrafiltration device, and 320 μL is diluted to 15 mL into HEPES buffer, spun down to approximately 500 μL, and resuspended in another 15 mL of HEPES buffer. After the final spin, samples were removed and concentrated in a smaller ultrafiltration device and brought to approximately 70 μL final volume (4.7 μm). Samples were flash frozen and stored at –80°C prior to analysis.\nThe GNOM program was used to evaluate the pair distribution plot using an indirect Fourier transform. […]"}, "[3]": {"target": "SOD1 (Homo sapiens, UniProt P00441)", "sequence (P00441 2-154 limits assumed)": "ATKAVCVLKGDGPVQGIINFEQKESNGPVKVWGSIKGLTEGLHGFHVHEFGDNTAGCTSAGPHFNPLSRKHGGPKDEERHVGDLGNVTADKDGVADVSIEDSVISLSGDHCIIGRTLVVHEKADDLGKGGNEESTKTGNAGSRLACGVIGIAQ", "assay_type": "binding", "experimental": "A computational search was performed in PubChem to identify all compounds containing a cyclic disulfide motif. […] Of these, 69 compounds cross-linked SOD1 with a wide array of reaction rates. Only 2 compounds could cross-link 100% of SOD1 during the assay, including one 5-membered cyclic disulfide (4-Amino-1,2-Dithiolane-4-Carboxylic Acid) and one 6-membered cyclic thiosulfinate (1,2-dithiane 1-oxide)."}, "[4]": {"assay": "Blood-brain barrier penetration", "assay_type": "in vivo, mouse"}}}
{"smiles": "[O-][S+]1CCCCS1", "note": "(stereo not shown) [S-XL6, 1,2-dithiane-1-oxide]", "values": [{"measurement": "monomeric population of fALS variants after S-XL6 treatment", "setting": "[1]", "result": "decreased"}, {"measurement": "large (>1,000 kDa) aggregates after S-XL6 treatment", "setting": "[1]; all fALS variants tested", "result": "diminished"}, {"measurement": "Dmax of SOD1^G93A with S-XL6", "setting": "[2]", "result": "approximately 79 Å"}, {"measurement": "SOD1 cross-linked during the assay", "setting": "[3]", "result": 100, "unit": "%"}, {"measurement": "blood–brain barrier crossing", "setting": "[4]; fALS mouse model", "result": "crosses the blood–brain barrier"}, {"measurement": "log BB at 1 h", "setting": "[4]; transgenic SOD1^G93A, mouse, brain/blood, subcutaneous, 30 mg/kg", "result": 0.02}, {"measurement": "Kp at 1 h", "setting": "[4]; transgenic SOD1^G93A, mouse, brain/blood, subcutaneous, 30 mg/kg, read-out: % BBB penetration", "result": 0.0002}]}
